Data: publication PMC11345766, “Computational Design of Pore-Forming Peptides with Potent Antimicrobial and Anticancer Activities” (Journal of Medicinal Chemistry, 2024)
Ends that are not written are not given here.

Tests used:
E. coli (TOP10) = experiment: Broth microdilution antimicrobial susceptibility assay; format: cell-based, Escherichia coli
Procedure, shortened: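 Bacteria were grown on MHA for 24 h, subcultured in MHB for 6 h at 37 °C and diluted to 10^6 CFU/mL. Compounds were serially diluted from 50 to 0.1 μM, inoculated and incubated for 24 h at 37 °C. MIC was the lowest concentration with no visible turbidity.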

[1] = tested on: HL-60, K-562, MCF-7 and HCT-116 cells; experiment: Viability by flow cytometry DiOC6/7AAD staining, effect of pH and media; format: cell-based, human; conditions: 10 μM, 1 h; RPMI, DMEM, PBS at pH 8, 7, 6 and ∼7.6
Description: To investigate the effect of pH and media on anticancer activity, we further tested the peptides against four cell lines, HL-60, K-562, and MCF-7, and the colon cancer cells HCT-116, cultured in three different media, namely, RPMI, DMEM, and PBS, each adjusted to three different pH values 8, 7, and 6, and additionally one case without pH adjustment (∼7.6) (Figure 6c). To avoid pH changes due to the natural buffering of the CO2-bicarbonate system used in cell culture, the peptides were tested at a concentration of 10 μM for only 1 h, as the cell lysis effect was already apparent within 30 min of exposure (Figure S9d).
Effects of pH and culture medium on the anticancer activity of peptides against acute myeloid leukemia HL-60, chronic myeloid leukemia K-562, breast adenocarcinoma MCF-7, and colon cancer cells HCT-116 cultured in three different media RPMI (#21875034, Gibco), DMEM (#LM-D1110/500, Biosera), and PBS adjusted to three different pH values 8, 7, and 6, and a medium without pH adjustment (∼7.6), were tested using flow cytometry DiOC6/7AAD (3,3-dihexyloxacarbocyanine iodide/7-amino-actinomycin D) staining assay, as described previously.[102] Media pH was adjusted twice, i.e., 1 day before the experiment and immediately before the experiment. Medium was supplemented with 10% heat-inactivated FBS, glutamine, sodium pyruvate, and antibiotics (100 U/mL penicillin and 100 μg/mL streptomycin). […] To determine cell viability, cells were incubated with DiOC6 (Thermo Fisher Scientific) and 7AAD (Thermo Fisher Scientific) for 15 min at 37 °C and cell viability was measured using a BriCyte E6 flow cytometer (Mindray); viable cells were considered as DiOC6-positive and 7AAD-negative.
The effect of pH on peptide activity in cancer cells was evaluated by the multiway ANOVA followed by Tukey post hoc test. Regarding the comparison of the effect of the medium, we analyzed the data from Figure 6c by comparing RPMI medium and DMEM of the same pH, and statistical significance was assessed using the multiway ANOVA followed by Tukey post hoc test. […]

[2] = tested on: P. aeruginosa K11 (IMI, MER, CTZ, PIT); conditions: P. aeruginosa / K11 / IMI, MER, CTZ, PIT / Prot. c; Prot. c
P. aeruginosa PA01 (WT) = conditions: P. aeruginosa / PA01 / WT / Prot. d; Prot. d
[3] = tested on: E. faecium BM4147 (AMX, VAN); conditions: E. faecium / BM4147 / AMX, VAN / Prot. b; Prot. b
E. faecalis UCN41 (VAN) = conditions: E. faecalis / UCN41 / VAN / Prot. b; Prot. b
[4] = tested on: K. pneumoniae E1267 (GEN, AMI); conditions: K. pneumoniae / E1267 / GEN, AMI / Prot. c; Prot. c
[5] = tested on: murine macrophages RAW 264.7; conditions: 24 h
Procedure, shortened: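 RAW 264.7 murine macrophages seeded at 4 × 10^4 cells/well in DMEM with 2% FBS, then exposed to peptides (2–128 μM) for 24 h at 37 °C. Viability by MTT (0.5 mg/mL, 4 h) reduction to formazan, dissolved in acidified isopropanol, read at OD570; untreated cells as negative control.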

H-HHHHLKKILKKLFQFINQLDNQLQDIHHHH-OH [LP40]
MIC (E. coli (TOP10); 24 h, MHB): > 50 µM | MIC against E. coli (TOP10) (E. coli (TOP10); TOP10, 24 h, pH 6): 0.4 µM | Activity against cancer cells (cell viability) as a function of pH and medium [1]: pH-dependent activity

KKKKLKKILKKLFQFINQLDNQLQDIKKKK-NH2 [LP18]
pH dependence of antimicrobial activity (E. coli (TOP10); pH 8 and 6): independent of pH | MIC [2]: 16 µM | MIC (P. aeruginosa PA01 (WT)): 3.1 µM | MIC [3]: 4 µM | MIC (E. faecalis UCN41 (VAN)): > 32 µM | MIC [4]: > 32 µM | IC50 [5]: 25 µM

KKKKLKKILKKLFQFINQLDNQLQDIKQNK-NH2 [LP1]
MIC [2]: > 32 µM | MIC (P. aeruginosa PA01 (WT)): 3.1 µM | MIC [3]: 16 µM | MIC (E. faecalis UCN41 (VAN)): > 32 µM | MIC [4]: > 32 µM | Activity against cancer cells (cell viability) as a function of pH and medium [1]: pH-dependent activity | IC50 [5]: 44 µM
